Counter-ions that a name gives are not always drawn.
Test system: Cerebral blood flow after complete cerebral ischemia-reperfusion in dogs
Test: Effect on cerebral blood flow and cortical water content after complete cerebral ischemia-reperfusion in dogs
Format: in vivo, dog (adult mongrel)
Details: for Decrease rate of γ-CBF 3 hours after reperfusion: control 44.3±1.4%
Protocol: Fourteen adult mongrel dogs were anesthetized with a combination of α-chloralose and urethane. Polyethylene catheters were introduced into the femoral artery and vein. Systemic blood pressure was measured through the cannulated femoral artery with an electromanometer. Heart rate was recorded with a cardiotachometer. The regional cerebral blood flow (γ-CBF) was measured using a thermal diffusion flow probe incorporating a Peltier stack. The animals were subjected to positive-pressure ventilation with room-air. A thoracotomy was performed in the third right intercostal space. […] Occlusion was maintained for 10 minutes. After reperfusion, all physiological variables were continuously recorded for 3 hours. After 3 hours of reperfusion, animals were sacrificed. The regional cerebral cortex was removed, weighed and then dried (48 hours at 120° C.) to remove water content. The test drugs were given intravenously 5 minutes before ischemia.

Question: For Cc1ccc(-c2nc3c(s2)NCCCC3)cc1N [Example 106, 2-(3-Amino-4-methylphenyl)-5,6,7,8-tetrahydro-4H-thiazolo-[5,4-b]azepine dihydrochloride], which “Effect on decrease in γ-CBF” value (1 mg/kg, i.v., 3 hours after reperfusion) is on record?
Answer: Its value is “significantly inhibited a decrease in γ-CBF 3 hours after reperfusion”.

Question: What about the “Water Content (%) of cerebral cortex” value (1 mg/kg, i.v., 3 hours after reperfusion, control 79.81 ± 0.21) of the same compound?
Answer: The value was 78.22 ± 0.08%.

Question: And the “Decrease rate of γ-CBF 3 hours after reperfusion” value (1 mg/kg, i.v.)?
Answer: The value was 18.0±3.1%.

Question: What about the “Effect on post-ischemia hypoperfusion in γ-CBF” value (10 mg/kg, i.v.) of the same compound?
Answer: The value was “almost completely inhibited the post-ischemia hypoperfusion in γ-CBF”.

Question: And the “Decrease rate of γ-CBF 3 hours after reperfusion” value (10 mg/kg, i.v.)?
Answer: Its value is 6.5±2.5%.

Question: And the “Effect on increase in water content in the cerebral cortex” value (3 hours after reperfusion)?
Answer: The value was “significantly inhibited the increase in water content in the cerebral cortex 3 hours after reperfusion”.

Question: And the “Time after reperfusion at which γ-CBF recovered to the pre-occlusion level” value (i.v., 5 minutes before ischemia)?
Answer: The value was 30 min.

Question: What about the “γ-CBF immediately after reperfusion” value (i.v., 5 minutes before ischemia, vs control group) of the same compound?
Answer: The value was “transiently increased, with reactive hyperemia to the same extent as that of the control group”.

From patent US5300639A, “Thiazolo [5,4-b]azepine compounds” (Takeda Chemical Industries, Ltd., priority 1992, dated 1994)
